Each structure is given as a SMILES string. Active and inactive are the calls of the source.

The target of experiment [1] is T1, Kappa-type opioid receptor (Homo sapiens, UniProt P41145). Format: functional.
In experiment [2] the target is T2, Beta-galactosidase (Escherichia coli, UniProt Q8VNN2). Format: functional.
Experiment [3] deals with T1, Kappa-type opioid receptor. Format: functional. This is another data set of the same source.
Experiment [4] has as its target T3, C-C chemokine receptor type 6 (Homo sapiens, UniProt P51684).
T3 sequence (P51684 whole entry): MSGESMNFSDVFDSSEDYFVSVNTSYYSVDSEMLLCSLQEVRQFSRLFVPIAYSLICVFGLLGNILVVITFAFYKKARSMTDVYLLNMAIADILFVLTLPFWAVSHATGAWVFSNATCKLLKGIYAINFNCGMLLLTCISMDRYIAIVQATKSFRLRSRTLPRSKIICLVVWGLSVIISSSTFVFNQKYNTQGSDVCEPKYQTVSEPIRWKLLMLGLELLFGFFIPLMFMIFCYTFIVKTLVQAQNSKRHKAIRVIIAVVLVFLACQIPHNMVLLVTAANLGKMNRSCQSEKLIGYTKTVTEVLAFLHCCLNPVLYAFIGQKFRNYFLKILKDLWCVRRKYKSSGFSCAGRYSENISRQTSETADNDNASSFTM
The experiment can be described thus: antagonism of CCR6 beta-arrestin recruitment – cell-based, luminescent beta-arrestin readout, dose response (AID 504728). In kind it is functional.

Experiment [5] addresses T2, Beta-galactosidase. The experiment can be described thus: detection-enzyme interference by beta-gal modulators – biochemical, E. coli enzyme, set 3, artefact control for CCR6 antagonist project, dose response (AID 504712). Format: functional.
Experiment [6] deals with T4, Polyadenylate-binding protein 1 (Homo sapiens, UniProt P11940). Briefly: MLLE binding blockers, Cy5 peptide tracer – biochemical, fluorescence polarization, Cy5-PAM2 peptide, secondary, miRNA deadenylation inhibitor project, dose response (AID 602260). Format: functional. Conditions: read-out: IC50_Mean.
T4 sequence (P11940 whole entry, the tested form may be a part): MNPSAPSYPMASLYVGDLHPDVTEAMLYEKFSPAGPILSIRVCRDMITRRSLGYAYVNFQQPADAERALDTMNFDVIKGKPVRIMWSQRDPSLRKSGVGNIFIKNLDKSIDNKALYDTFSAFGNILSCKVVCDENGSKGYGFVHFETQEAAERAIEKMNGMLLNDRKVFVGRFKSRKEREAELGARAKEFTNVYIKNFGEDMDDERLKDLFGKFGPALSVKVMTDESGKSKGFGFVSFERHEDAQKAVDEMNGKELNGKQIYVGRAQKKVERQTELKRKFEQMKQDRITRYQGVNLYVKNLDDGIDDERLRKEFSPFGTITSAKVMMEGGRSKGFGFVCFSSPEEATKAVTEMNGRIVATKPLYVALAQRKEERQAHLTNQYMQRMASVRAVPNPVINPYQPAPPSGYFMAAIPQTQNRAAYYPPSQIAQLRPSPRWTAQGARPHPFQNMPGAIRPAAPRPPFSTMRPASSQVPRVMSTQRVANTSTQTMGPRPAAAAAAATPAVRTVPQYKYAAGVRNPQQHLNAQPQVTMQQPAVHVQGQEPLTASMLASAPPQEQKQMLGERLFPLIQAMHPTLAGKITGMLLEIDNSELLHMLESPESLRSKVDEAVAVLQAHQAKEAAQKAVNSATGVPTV
For experiment [7], the target named is T4, Polyadenylate-binding protein 1. The experiment can be described thus: MLLE domain peptide-binding blockers, IC50 – biochemical, fluorescence polarization, FITC-PAM2 peptide, dose response (AID 602259). In kind it is functional. The conditions noted are these: read-out: IC50_Mean. On the technique in general: Polarisation of emitted light reports the rotation of a fluorescent probe.

Another experiment deals with Trypsin (Sus scrofa, UniProt P00761). The experiment can be described thus: trypsin protease activity blockade – biochemical, quenched peptide fluorescence, cherry-pick, selectivity assay for Rce1 protease inhibitor project, dose response (AID 488789).
For experiment [8], the target named is T5, Type-1 angiotensin II receptor (Homo sapiens, UniProt P30556).
T5 sequence (P30556 whole entry): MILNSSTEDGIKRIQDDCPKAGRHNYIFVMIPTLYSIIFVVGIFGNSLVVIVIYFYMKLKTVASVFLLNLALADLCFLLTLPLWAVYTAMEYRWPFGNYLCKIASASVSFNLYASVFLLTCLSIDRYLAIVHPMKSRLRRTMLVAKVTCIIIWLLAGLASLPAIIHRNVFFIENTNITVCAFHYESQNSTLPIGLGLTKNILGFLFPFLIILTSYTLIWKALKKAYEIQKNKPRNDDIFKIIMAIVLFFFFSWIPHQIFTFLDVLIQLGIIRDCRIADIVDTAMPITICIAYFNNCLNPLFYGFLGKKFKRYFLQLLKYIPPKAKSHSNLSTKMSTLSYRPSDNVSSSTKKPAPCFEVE
The experiment can be described thus: agonist activity at AGTR1 – cell-based, uHTS hits, selectivity assay for APJ receptor agonist project, dose response (AID 488865).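 Note: beta-arrestin recruitment to AT1 measured by enzyme fragment complementation luminescence.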 Format: functional.

Experiment [9] concerns the target T6, DNA repair and recombination protein RAD54-like (Homo sapiens, UniProt Q92698).
T6 sequence (Q92698 whole entry): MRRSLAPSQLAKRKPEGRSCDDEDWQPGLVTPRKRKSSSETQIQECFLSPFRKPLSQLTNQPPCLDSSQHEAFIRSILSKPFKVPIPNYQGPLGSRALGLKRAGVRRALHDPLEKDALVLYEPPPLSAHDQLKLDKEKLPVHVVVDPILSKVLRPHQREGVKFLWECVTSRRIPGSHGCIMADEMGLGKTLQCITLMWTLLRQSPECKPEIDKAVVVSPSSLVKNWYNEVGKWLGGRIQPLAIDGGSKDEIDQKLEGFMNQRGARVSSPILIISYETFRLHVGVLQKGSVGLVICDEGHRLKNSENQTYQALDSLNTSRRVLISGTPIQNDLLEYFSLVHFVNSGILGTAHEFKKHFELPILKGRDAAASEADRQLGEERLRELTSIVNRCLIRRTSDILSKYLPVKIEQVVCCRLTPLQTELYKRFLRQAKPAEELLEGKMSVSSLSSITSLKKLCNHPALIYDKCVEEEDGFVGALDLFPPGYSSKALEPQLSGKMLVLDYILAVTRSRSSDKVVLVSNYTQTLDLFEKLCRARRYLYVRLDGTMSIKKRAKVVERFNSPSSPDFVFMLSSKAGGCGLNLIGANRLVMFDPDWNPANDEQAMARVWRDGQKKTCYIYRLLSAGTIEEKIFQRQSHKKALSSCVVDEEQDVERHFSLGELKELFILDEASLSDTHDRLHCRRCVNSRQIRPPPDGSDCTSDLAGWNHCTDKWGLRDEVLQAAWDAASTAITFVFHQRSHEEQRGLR
The experiment can be described thus: RAD54 Holliday junction migration blockers – biochemical, fluorescence, cherry-picked samples, dose series, confirmation (AID 651657). Format: functional.

A further experiment deals with H9c2. The experiment can be described thus: cells. Format: functional, cell-based. The conditions noted are these: Rattus norvegicus, H9c2, Myocardium.
In experiment [10] the target is T7, Voltage-gated N-type calcium channel alpha-1B subunit/Amyloid beta A4 precursor protein-binding family A member 1 (Homo sapiens, UniProt Q00975+Q02410). Format: protein assay.
The target of the next experiment is Large T antigen (Simian virus 40, UniProt P03070). Format: functional, Betapolyomavirus macacae.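 Note: Confirmatory-stage PubChem screen for compounds that inhibit SV40 T antigen.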
In experiment [11] the target is T7, Voltage-gated N-type calcium channel alpha-1B subunit/Amyloid beta A4 precursor protein-binding family A member 1. Format: protein assay. This is another data set of the same source.
Experiment [12] concerns the target Eukaryotic translation initiation factor 4E (Mus musculus, UniProt P63073). The experiment can be described thus: blockers of eIF4G binding by eIF4E – biochemical, TR-FRET, dose response (AID 855).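 Note: potency for disrupting eIF4E binding to eIF4GI seen as loss of FRET.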 In kind it is functional.
Experiment [13] in a line: viability loss in THP-1 monocytes – THP-1 cells, cytotoxicity control for Vif-APOBEC3G degradation inhibitor project, dose response (AID 1117359). In kind it is functional. The conditions noted are these: THP-1.
Experiment [14] can be described thus: cells.
The nature of experiment [15]: THP-1 cell cytotoxicity, dose response, cytotoxicity control for non-replicating M. tuberculosis project (AID 489025). Format: functional.
Experiment [16] can be described thus: cells. In kind it is functional.
Experiment [17] has as its target Peroxisome proliferator-activated receptor gamma/Nuclear receptor coactivator 2 (Homo sapiens, UniProt P37231). In kind it is functional.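 Note: agonist potency for raising coactivator recruitment to the receptor.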
The target in experiment [18] is Peroxisome proliferator-activated receptor gamma/Nuclear receptor coactivator 1 (Homo sapiens, UniProt P37231). Format: functional.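 Note: agonist potency as compounds enhance coactivator SRC-1 recruitment to PPARgamma.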
Experiment [19] addresses Peroxisome proliferator-activated receptor gamma/Nuclear receptor coactivator 3 (Homo sapiens, UniProt P37231). In kind it is functional.
The next experiment deals with Integrin alpha-L (Mus musculus, UniProt P24063). Briefly: modulators of CD8 T cell-vesicle binding, dose response, powder samples, mouse 2C CD8+ cells (AID 504565). Format: functional.
The target in experiment [20] is T8, Short transient receptor potential channel 4 (Mus musculus, UniProt Q9QUQ5).
T8 sequence (Q9QUQ5 whole entry): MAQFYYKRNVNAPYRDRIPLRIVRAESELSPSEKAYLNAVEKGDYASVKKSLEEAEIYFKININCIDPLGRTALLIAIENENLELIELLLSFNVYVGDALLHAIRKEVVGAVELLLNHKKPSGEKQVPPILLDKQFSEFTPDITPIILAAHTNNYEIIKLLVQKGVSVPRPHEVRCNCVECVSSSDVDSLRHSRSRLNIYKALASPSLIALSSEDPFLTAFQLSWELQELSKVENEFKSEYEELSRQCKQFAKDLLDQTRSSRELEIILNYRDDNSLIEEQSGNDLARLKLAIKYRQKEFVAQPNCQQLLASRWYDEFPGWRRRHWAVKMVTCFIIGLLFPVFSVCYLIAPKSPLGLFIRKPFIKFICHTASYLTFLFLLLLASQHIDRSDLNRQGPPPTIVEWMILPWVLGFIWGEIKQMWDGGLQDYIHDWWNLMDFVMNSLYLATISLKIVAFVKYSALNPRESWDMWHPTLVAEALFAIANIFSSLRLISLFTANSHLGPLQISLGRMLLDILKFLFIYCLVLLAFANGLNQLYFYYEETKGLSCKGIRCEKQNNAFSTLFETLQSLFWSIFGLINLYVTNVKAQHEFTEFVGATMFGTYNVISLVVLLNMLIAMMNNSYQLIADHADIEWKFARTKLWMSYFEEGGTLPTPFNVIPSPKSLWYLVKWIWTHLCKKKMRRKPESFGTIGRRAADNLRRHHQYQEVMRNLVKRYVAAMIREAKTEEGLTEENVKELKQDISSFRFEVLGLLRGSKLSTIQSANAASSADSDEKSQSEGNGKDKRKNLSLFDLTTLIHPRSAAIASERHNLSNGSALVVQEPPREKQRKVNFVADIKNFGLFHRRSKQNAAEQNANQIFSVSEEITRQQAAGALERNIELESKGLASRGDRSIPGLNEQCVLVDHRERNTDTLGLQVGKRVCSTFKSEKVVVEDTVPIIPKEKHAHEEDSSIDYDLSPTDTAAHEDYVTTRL
Briefly: calcium entry via TRPC4 opening agents – cell-based, HEK293 TRPC4/mu-opioid, Fluo-4 calcium, dose response (AID 434937). In kind it is functional.

The next experiment deals with Cytochrome P450 2C9 (Homo sapiens, UniProt P11712). The conditions noted are these: Potency.

Sequence of Peroxisome proliferator-activated receptor gamma/Nuclear receptor coactivator 3 (P37231 whole entry): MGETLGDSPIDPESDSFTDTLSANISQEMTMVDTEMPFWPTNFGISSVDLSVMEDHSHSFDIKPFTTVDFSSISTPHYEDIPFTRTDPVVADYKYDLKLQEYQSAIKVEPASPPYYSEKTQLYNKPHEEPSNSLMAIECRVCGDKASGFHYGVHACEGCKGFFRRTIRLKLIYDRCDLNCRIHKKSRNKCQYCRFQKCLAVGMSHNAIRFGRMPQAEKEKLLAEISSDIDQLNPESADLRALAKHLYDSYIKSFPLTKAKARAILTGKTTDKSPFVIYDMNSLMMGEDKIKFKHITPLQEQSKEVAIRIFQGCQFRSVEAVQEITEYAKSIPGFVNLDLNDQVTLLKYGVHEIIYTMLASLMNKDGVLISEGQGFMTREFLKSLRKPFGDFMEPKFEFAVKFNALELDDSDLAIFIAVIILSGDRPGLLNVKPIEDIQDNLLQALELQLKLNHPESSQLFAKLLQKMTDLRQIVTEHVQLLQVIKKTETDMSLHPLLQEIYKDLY
Sequence of Peroxisome proliferator-activated receptor gamma/Nuclear receptor coactivator 3 (Q9Y6Q9 whole entry, further chain): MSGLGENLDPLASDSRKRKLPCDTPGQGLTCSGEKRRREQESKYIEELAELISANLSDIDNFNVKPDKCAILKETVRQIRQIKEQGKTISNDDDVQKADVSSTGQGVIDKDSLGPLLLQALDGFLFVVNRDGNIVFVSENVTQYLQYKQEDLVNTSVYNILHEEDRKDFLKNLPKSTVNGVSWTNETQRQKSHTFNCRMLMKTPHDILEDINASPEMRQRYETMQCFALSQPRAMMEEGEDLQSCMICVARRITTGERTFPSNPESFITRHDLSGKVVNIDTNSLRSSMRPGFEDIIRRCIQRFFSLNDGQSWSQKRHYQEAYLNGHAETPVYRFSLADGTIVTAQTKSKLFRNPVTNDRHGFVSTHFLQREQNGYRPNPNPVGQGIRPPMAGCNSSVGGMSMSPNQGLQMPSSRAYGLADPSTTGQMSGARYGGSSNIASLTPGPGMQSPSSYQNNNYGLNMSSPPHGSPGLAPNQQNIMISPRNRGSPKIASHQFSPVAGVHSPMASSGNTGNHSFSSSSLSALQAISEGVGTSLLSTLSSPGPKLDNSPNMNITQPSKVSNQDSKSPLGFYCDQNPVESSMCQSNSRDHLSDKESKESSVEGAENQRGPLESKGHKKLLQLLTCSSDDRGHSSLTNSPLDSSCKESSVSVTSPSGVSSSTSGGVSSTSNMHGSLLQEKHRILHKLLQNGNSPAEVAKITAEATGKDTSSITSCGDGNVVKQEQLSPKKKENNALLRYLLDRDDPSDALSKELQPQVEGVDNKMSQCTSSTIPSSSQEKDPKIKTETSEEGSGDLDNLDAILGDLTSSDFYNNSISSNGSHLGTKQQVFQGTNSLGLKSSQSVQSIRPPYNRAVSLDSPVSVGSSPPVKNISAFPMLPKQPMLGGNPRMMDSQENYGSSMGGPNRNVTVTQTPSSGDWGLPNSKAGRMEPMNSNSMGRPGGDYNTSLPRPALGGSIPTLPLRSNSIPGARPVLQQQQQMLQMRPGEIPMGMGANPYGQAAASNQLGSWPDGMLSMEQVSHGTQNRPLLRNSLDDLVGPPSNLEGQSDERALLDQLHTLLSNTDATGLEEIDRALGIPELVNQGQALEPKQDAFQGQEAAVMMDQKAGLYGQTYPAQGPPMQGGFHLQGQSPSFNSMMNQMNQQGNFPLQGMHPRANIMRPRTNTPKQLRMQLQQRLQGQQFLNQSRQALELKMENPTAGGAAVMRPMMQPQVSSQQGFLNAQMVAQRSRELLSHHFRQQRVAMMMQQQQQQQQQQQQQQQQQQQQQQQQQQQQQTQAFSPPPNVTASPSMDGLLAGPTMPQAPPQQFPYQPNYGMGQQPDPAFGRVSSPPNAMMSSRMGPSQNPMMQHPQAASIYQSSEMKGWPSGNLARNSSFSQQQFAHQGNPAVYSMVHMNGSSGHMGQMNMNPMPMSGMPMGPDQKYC
Sequence of Peroxisome proliferator-activated receptor gamma/Nuclear receptor coactivator 2 (P37231 whole entry): as the sequence (P37231 whole entry) above
Sequence of Peroxisome proliferator-activated receptor gamma/Nuclear receptor coactivator 2 (Q15596 whole entry, further chain): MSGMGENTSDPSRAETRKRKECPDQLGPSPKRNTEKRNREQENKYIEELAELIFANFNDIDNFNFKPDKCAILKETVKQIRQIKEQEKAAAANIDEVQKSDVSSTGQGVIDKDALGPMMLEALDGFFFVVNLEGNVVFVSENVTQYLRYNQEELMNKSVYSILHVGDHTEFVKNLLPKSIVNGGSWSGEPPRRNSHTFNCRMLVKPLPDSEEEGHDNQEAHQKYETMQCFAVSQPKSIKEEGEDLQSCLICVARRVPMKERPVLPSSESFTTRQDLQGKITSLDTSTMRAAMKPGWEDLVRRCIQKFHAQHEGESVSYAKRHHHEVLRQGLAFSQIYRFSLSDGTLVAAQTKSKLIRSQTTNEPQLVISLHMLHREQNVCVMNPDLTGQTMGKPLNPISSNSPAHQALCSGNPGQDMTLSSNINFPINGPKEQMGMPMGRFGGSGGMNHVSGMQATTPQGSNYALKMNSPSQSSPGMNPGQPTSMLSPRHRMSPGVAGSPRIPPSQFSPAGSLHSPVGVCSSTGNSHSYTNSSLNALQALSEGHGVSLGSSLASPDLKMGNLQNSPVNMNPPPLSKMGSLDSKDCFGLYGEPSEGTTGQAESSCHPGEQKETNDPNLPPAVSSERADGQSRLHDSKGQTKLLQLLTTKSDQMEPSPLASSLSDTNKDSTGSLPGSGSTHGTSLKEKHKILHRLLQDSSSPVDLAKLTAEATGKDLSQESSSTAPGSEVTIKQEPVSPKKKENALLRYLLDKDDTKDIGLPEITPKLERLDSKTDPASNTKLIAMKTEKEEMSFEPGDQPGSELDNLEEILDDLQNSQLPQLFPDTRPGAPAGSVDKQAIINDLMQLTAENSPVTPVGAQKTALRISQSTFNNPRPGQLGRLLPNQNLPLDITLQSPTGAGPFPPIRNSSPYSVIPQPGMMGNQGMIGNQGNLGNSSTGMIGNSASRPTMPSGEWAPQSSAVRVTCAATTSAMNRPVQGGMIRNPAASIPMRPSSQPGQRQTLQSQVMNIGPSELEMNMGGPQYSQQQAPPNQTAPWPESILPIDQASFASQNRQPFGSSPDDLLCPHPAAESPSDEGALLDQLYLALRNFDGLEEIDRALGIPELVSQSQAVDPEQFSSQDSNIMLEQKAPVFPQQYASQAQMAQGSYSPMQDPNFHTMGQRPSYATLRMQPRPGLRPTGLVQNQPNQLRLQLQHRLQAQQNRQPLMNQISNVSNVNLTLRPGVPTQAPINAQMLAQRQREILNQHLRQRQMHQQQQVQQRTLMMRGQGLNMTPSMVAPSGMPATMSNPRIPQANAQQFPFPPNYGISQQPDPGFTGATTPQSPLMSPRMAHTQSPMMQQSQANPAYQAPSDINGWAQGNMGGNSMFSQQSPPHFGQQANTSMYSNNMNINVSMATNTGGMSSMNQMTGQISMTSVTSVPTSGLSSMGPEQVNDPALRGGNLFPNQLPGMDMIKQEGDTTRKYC
T1 sequence (P41145 whole entry): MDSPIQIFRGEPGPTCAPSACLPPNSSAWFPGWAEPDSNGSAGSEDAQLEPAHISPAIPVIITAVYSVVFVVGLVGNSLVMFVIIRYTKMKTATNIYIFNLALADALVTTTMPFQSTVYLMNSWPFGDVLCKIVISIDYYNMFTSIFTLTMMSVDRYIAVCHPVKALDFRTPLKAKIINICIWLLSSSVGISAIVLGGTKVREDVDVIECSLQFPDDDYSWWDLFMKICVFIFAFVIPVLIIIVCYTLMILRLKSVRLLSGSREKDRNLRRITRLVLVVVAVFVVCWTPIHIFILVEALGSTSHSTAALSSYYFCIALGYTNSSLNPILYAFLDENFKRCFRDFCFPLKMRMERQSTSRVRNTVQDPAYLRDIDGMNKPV

For the molecule `COc1ccc(NC(=S)NC(NC(=O)c2ccccc2Cl)C(Cl)(Cl)Cl)c([N+](=O)[O-])c1` (centres undefined), the IC50 in experiment [1] is 7.41 µM (active); in [3], 5.11 µM; in experiment [4], > 66.6 µM (inactive); on Beta-galactosidase [5], > 66.6 µM (inactive); in [6], > 66 µM (inactive); in experiment [7], > 66 µM (inactive). At Beta-galactosidase [2], the EC50 was > 31.5 µM (inactive).

In the case of `Nc1c(C(=O)NCc2ccccc2)sc2nc(N3CCOCC3)c3c(c12)CCCC3`, the AC50 at Trypsin is 14.8 µM (active).

Regarding `COc1cccc2sc3ccc(NCCC4CCCN4C)cc3c(=O)c12` (centres undefined), the EC50 in experiment [8] was > 100 µM (inactive). In [9], the AC50 was 22.8 µM (active).

Regarding `CCOc1ccc2nc(O)c(CN(CCO)C(c3nnnn3C3CCCCC3)C(C)C)cc2c1` (centres undefined), in [8], the EC50 is > 100 µM (inactive). Also, the IC50 with H9c2 was > 79 µM (inactive).

As for `O=C(CSc1nc2ccccc2n1CCc1ccccc1)c1ccc(O)c(O)c1`, the IC50 in experiment [10] was 9.4 µM (active); at Large T antigen it was 35.9 µM (active); in experiment [11] it was > 50 µM (inactive); in experiment [12], 23.7 µM (active). In addition, the half-maximal cytotoxic concentration (CC50) in experiment [13] was > 40 µM (active).

As for `COc1ccccc1CNC(=O)C1CCN(S(=O)(=O)c2cccc3nonc23)CC1`, in the experiment “cells [14]”, the IC50 was 3.4 µM (active).

Consider `O=C(CCS(=O)(=O)c1ccccc1)Nc1nnc(-c2ccco2)o1`, for which the CC50 in [15] is > 40 µM (active). Further, the IC50 in the experiment “cells [16]” is 48.6 µM (active).

As to `CC(C)(C)C1CCc2c(sc(NC(=O)c3cccs3)c2C(N)=O)C1` (centres undefined), the half-maximal effective concentration (EC50) in experiment [17], in experiment [18] and in experiment [19] was > 79.4 µM (not active) throughout.

Regarding `O=C(NCC1CCCCC1)c1ccc(Cl)c(S(=O)(=O)N2CCOCC2)c1`, on Integrin alpha-L, the half-maximal effective concentration (EC50) is 20.1 µM (active).

Turning to `Cc1ccc(C)c(CN2CCC(CNC(=O)CCc3nnc4ccc(N5CCCCC5)nn34)CC2)c1`, the concentration giving a half-maximal response (EC50) in experiment [20] was 0.299 µM (active).

For the molecule `COc1ccc([C@@H]2OC[C@]3(COC(C)=O)[C@H](C)C=C(C)[C@@H]2[C@H]3C)cc1`, the AC50 at Cytochrome P450 2C9 was 20 µM (inconclusive).

For the molecule `CCOCCn1/c(=N/C(=O)c2cc(Cl)sc2Cl)sc2cc(S(N)(=O)=O)ccc21`, the EC50 in [17] is 14 µM (not active); in experiment [18], 13.4 µM (not active); in experiment [19], 16.8 µM (not active).

Usually EC50 stands for the concentration needed to bring the measured effect to its halfway point. Broadly, the AC50 is the concentration giving half of the maximal activity seen. For orientation: CC50 means the concentration giving 50% cytotoxicity.

These data come from ChEMBL document CHEMBL1201862, “PubChem BioAssay data set” (2004).
